Assay results: patent US6555556B1, “Benzamidine derivatives” (Sankyo Company, Limited, priority 1999, dated 2003)
Where a name gives a salt, the structure may show the parent alone.

These compounds were tested against T1, human factor Xa (Homo sapiens, UniProt P00742) (assay: Determination of anti-factor Xa activity (chromogenic substrate S-2222)). Settings: 0.25 unit/ml human factor Xa, 0.4 mM S-2222, tris-HCl buffer pH 8.4, 5 min at room temperature, absorbance 405 nm; read-out: Factor Xa inhibitory activity [IC50 (nM)].
T1 construct: purchased Cosmo Bio Co., Ltd, Tokyo, Japan
T1 sequence (P00742 235-488 limits assumed): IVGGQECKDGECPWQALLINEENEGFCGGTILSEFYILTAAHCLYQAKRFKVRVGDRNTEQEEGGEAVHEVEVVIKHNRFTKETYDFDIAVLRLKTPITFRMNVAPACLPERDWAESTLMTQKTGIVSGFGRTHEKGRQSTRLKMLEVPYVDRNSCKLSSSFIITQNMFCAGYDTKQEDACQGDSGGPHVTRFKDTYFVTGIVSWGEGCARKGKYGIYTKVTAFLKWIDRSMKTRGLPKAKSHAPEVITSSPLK
T1 sequence (P00742 41-179 partner limits assumed): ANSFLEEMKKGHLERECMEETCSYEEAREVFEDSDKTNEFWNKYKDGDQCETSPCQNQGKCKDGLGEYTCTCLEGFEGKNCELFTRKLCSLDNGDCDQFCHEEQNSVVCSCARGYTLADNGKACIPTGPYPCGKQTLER
Type: biochemical
Protocol: Anti-factor Xa activity was determined according to the method of Hara et al. (Thromb. Haemost, 71, 314 (1994), with slight modifications. A 50 mM tris-HCl buffer (pH 8.4) containing 0.9% NaCl, 0.4 mM chromogenic substrate, S-2222 (Daiichi Pure Chemicals Co., Ltd., Tokyo, Japan), and a test compound were mixed, and the reaction was started by adding 0.25 unit/ml human factor Xa (Cosmo Bio Co., Ltd, Tokyo, Japan). Distilled water instead of the test compound was added to the buffer in the control group. The reaction mixture in a total volume of 0.1 ml was incubated for 5 min at room temperature. The absorbance at 405 nm was measured continuously using a 96-well microplate reader (model 550, BioRad), and the increase in absorbance for 5 min was calculated as an index of factor Xa activity.
In the case of `CC(=N)N1CCC(Oc2ccc(N(CCOc3cccc(C(=N)N)c3)S(=O)(=O)CC(=O)O)cc2)CC1` [Compound A, N-[4-[1-acetimidoyl-4-piperidyloxy]phenyl]-N-[2-(3-amidinophenoxy)ethyl]sulfamoylacetic acid dihydrochloride salt, reference compound], the IC50 was 130 nM. `CCOC(=O)CS(=O)(=O)N(C/C=C/c1cccc(C(=N)N)c1)c1ccc(OC2CCN(C(C)=N)CC2)cc1` [Example 3, Ethyl N-[4-(1-Acetimidoylpiperidin-4-yloxy)phenyl]-N-[3-(3-amidinophenyl)-2-(E)-propenyl]sulfamoylacetate Dihydrochloride] gave an IC50 of 8.6 nM. `CC(=N)N1CCC(Oc2ccc(N(C/C=C/c3cccc(C(=N)N)c3)S(=O)(=O)CC(=O)O)cc2)CC1` [Example 4, N-[4-(1-Acetimidoylpiperidin-4-yloxy)phenyl]-N-[3-(3-amidinophenyl)-2-(E)-propenyl]sulfamoylacetic Acid Dihydrochloride] showed an IC50 of 6.4 nM. For `CCOC(=O)CS(=O)(=O)N(C/C=C/c1cccc(C(=N)N)c1)c1ccc(OC2CCN(C(C)=N)CC2)c(Cl)c1` [Example 8, Ethyl N-[4-(1-Acetimidoylpiperidin-4-yloxy)-3-chlorophenyl]-N-[3-(3-amidinophenyl)-2-(E)-propenyl]sulfamoylacetate Dihydrochloride], the IC50 was 4.5 nM. In the case of `CC(=N)N1CCC(Oc2ccc(N(C/C=C/c3cccc(C(=N)N)c3)S(=O)(=O)CC(=O)O)cc2Cl)CC1` [Example 9, N-[4-(1-Acetimidoylpiperidin-4-yloxy)-3-chlorophenyl]-N-[3-(3-amidinophenyl)-2-(E)-propenyl]sulfamoylacetic Acid Dihydrochloride], the IC50 was 7.4 nM. Compound `CCOC(=O)CS(=O)(=O)N(C/C=C/c1cccc(C(=N)N)c1)c1ccc(OC2CCN(C(C)=N)CC2)c(F)c1` [Example 10, Ethyl N-[4-(1-Acetimidoylpiperidin-4-yloxy)-3-fluorophenyl]-N-[3-(3-amidinophenyl)-2-(E)-propenyl]sulfamoylacetate Dihydrochloride] has an IC50 of 4.6 nM. `CC(=N)N1CCC(Oc2ccc(N(C/C=C/c3cccc(C(=N)N)c3)S(=O)(=O)CC(=O)O)cc2F)CC1` [Example 11, N-[4-(1-Acetimidoylpiperidin-4-yloxy)-3-fluorophenyl]-N-[3-(3-amidinophenyl)-2-(E)-propenyl]sulfamoylacetic Acid Dihydrochloride] showed an IC50 of 8.1 nM. `CC(=N)N1CCC(Oc2ccc(N(C/C=C/c3cccc(C(=N)N)c3)C(C)C)cc2)CC1` [Example 22, 3-[3-[N-[4-(1-Acetimidoylpiperidin-4-yloxy)phenyl]-N-isopropylamino]-1-(E)-propenyl]benzamidine Trihydrochloride] was tested, and the IC50 was 8.3 nM. In the case of `CCOC(=O)CN(C/C=C/c1cccc(C(=N)N)c1)c1ccc(OC2CCN(C(C)=N)CC2)cc1` [Example 23, Ethyl 2-[N-[4-(1-Acetimidoylpiperidin-4-yloxy)phenyl]-N-[3-(3-amidinophenyl)-2-(E)-propenyl]amino]acetate Trihydrochloride], the IC50 was 8.3 nM. With `CC(=N)N1CCC(Oc2ccc(N(C/C=C/c3cccc(C(=N)N)c3)CCO)cc2)CC1` [Example 28, 3-[3-[N-[4-(1-Acetimidoylpiperidin-4-yloxy)phenyl]-N-(2-hydroxyethyl)amino]-1-(E)-propenyl]benzamidine Trihydrochloride] the IC50 was 9 nM. In the case of `CCOC(=O)CS(=O)(=O)N(C/C=C/c1cccc(C(=N)N)c1)c1ccc(OC2CCN(C(C)=N)CC2)c(C(=O)OCC)c1` [Example 29, Ethyl N-[4-(1-Acetimidoylpiperidin-4-yloxy)-3-ethoxycarbonylphenyl]-N-[3-(3-amidinophenyl)-2-(E)-propenyl]sulfamoylacetate Dihydrochloride], the IC50 was 9 nM. `CCOC(=O)CS(=O)(=O)N(C/C=C/c1cccc(C(=N)N)c1)c1ccc(OC2CCN(C(C)=N)CC2)c(Br)c1` [Example 31, Ethyl N-[4-(1-Acetimidoylpiperidin-4-yloxy)-3-bromophenyl]-N-[3-(3-amidinophenyl)-2-(E)-propenyl]sulfamoylacetate Dihydrochloride] showed an IC50 of 10 nM. With `CC(=N)N1CCC(Oc2ccc(N(C/C=C/c3cccc(C(=N)N)c3)S(=O)(=O)CC(=O)O)cc2C(C)C)CC1` [Example 34, N-[4-(1-Acetimidoylpiperidin-4-yloxy)-3-isopropylphenyl]-N-[3-(3-amidinophenyl)-2-(E)-propenyl]sulfamoylacetic Acid Dihydrochloride] the IC50 was 10 nM. `CC(=N)N1CCC(Oc2ccc(N(C/C=C/c3cccc(C(=N)N)c3)S(=O)(=O)CC(=O)O)cc2C(N)=O)CC1` [Example 36, N-[4-(1-Acetimidolpiperdin-4-yloxy)-3-carbamoylphenyl]-N-[3-(3-amidinophenyl)-2-(E)-propenyl]sulfamoylacetic Acid Dihydrochloride] was tested, and the IC50 was 7.1 nM. Compound `CNC(=O)c1cc(N(C/C=C/c2cccc(C(=N)N)c2)S(=O)(=O)CC(=O)O)ccc1OC1CCN(C(C)=N)CC1` [Example 38, N-[4-(1-Acetimidoylpiperidin-4-yloxy)-3-(N′-methylcarbamoyl)phenyl]-N-[3-(3-amidinophenyl)-2-(E)-propenyl]sulfamoylacetic Acid Dihydrochloride] has an IC50 of 8.7 nM. In the case of `CCOC(=O)CS(=O)(=O)N(C/C=C/c1cc(C(=N)N)ccc1O)c1ccc(OC2CCN(C(C)=N)CC2)c(Cl)c1` [Example 41, Ethyl N-[4-(1-Acetimidoylpiperidin-4-yloxy)-3-chlorophenyl]-N-[3-(5-amidino-2-hydroxyphenyl)-2-(E)-propenyl]sulfamoylacetate Dihydrochloride], the IC50 was 7.5 nM. With `CCOC(=O)CS(=O)(=O)N(C/C=C/c1cccc(C(=N)N)c1)c1cc(F)c(OC2CCN(C(C)=N)CC2)c(F)c1` [Example 46, Ethyl N-[4-(1-Acetimidoylpiperidin-4-yloxy)-3,5-difluorophenyl]-N-[3-(3-amidinophenyl)-2-(E)-propenyl]sulfamoylacetate Dihydrochloride] the IC50 was 6.8 nM. With `CC(=N)N1CCC(Oc2c(F)cc(N(C/C=C/c3cccc(C(=N)N)c3)S(=O)(=O)CC(=O)O)cc2F)CC1` [Example 47, N-[4-(1-Acetimidoylpiperidin-4-yloxy)-3,5-difluorophenyl]-N-[3-(3-amidinophenyl)-2-(E)-propenyl]sulfamoylacetic Acid Dihydrochloride] the IC50 was 3.7 nM. `CC(=N)N1CCC(Oc2c(Cl)cc(N(C/C=C/c3cccc(C(=N)N)c3)S(=O)(=O)CC(=O)O)cc2Cl)CC1` [Example 49, N-[4-(1-Acetimidoylpiperidin-4-yloxy)-3,5-dichlorophenyl]-N-[3-(3-amidinophenyl)-2-(E)-propenyl]sulfamoylacetic Acid Dihydrochloride] gave an IC50 of 9.8 nM. For `CC(=N)N1CCC(Oc2ccc(N(C/C=C/c3cccc(C(=N)N)c3)S(=O)(=O)CC(=O)O)cc2C(F)(F)F)CC1` [Example 54, N-[4-(1-Acetimidoylpiperidin-4-yloxy)-3-trifluoromethylphenyl]-N-[3-(3-amidinophenyl)-2-(E)-propenyl]sulfamoylacetic Acid Dihydrochloride], the IC50 was 4.6 nM. `CC(=N)N1CCC(Oc2ccc(N(C/C=C/c3cccc(C(=N)N)c3)S(=O)(=O)CC(=O)O)cc2C)CC1` [Example 55, N-[4-(1-Acetimidoylpiperidin-4-yloxy)-3-methylphenyl]-N-[3-(3-amidinophenyl)-2-(E)-propenyl]sulfamoylacetic Acid Dihydrochloride] showed an IC50 of 5 nM. For `CCOC(=O)CS(=O)(=O)N(C/C(F)=C/c1cccc(C(=N)N)c1)c1ccc(OC2CCN(C(C)=N)CC2)cc1` [Example 56, Ethyl N-[4-(1-Acetimidoylpiperidin-4-yloxy)phenyl]-N-[3-(3-amidinophenyl)-2-fluoro-2-(Z)-propenyl]sulfamoylacetate Dihydrochloride], the IC50 was 10 nM. `CC(=N)N1CCC(Oc2ccc(N(C/C(F)=C/c3cccc(C(=N)N)c3)S(=O)(=O)CC(=O)O)cc2)CC1` [Example 57, N-[4-(1-Acetimidoylpiperidin-4-yloxy)phenyl]-N-[3-(3-amidinophenyl)-2-fluoro-2-(Z)-propenyl]sulfamoylacetic Acid Dihydrochloride] gave an IC50 of 9.3 nM.

The compounds below were run against T2, bovine trypsin (Bos taurus, UniProt P00760) (assay: Determination of anti-trypsin activity (chromogenic substrate S-2222)). Settings: bovine trypsin 0.25 μg-protein/ml, 0.4 mM S-2222, tris-HCl buffer pH 8.4, room temperature, 5 min, absorbance 405 nm.
T2 construct: purchased Sigma
T2 sequence (P00760 24-246): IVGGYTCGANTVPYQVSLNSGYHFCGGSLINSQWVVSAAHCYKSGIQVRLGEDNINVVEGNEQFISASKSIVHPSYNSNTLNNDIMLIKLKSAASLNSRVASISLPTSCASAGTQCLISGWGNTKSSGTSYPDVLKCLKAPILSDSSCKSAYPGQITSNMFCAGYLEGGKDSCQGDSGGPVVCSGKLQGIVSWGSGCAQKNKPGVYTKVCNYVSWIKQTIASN
Type: biochemical
Protocol: Anti-trypsin activity was determined according to the method of Taniuchi et al. [Thromb. Haemost., 79, 543 (1998)] with slight modifications. First, 85 μl of a 50 mM tris-HCl buffer (pH 8.4) containing 0.9% NaCl, 5 μl of chromogenic substrate, S-2222 (final concentration of 0.4 mM, Daiichi Pure Chemicals Co., Ltd., Tokyo, Japan) and 5 μl of a test compound were mixed, and the reaction was started by adding 5 μl of bovine trypsin (final concentration of 0.25 μg-protein/ml, Sigma). Distilled water instead of the test compound was added to the buffer in the control group. The reaction mixture in a total volume of 0.1 ml was incubated at room temperature. The absorbance at 405 nm was measured continuously using a 96-well microplate reader (model 550, BioRad), and the increase in absorbance for 5 min was calculated as an index of trypsin activity.
`CC(=N)N1CCC(Oc2ccc(N(C/C=C/c3cccc(C(=N)N)c3)S(=O)(=O)CC(=O)O)cc2Cl)CC1` [Example 9, N-[4-(1-Acetimidoylpiperidin-4-yloxy)-3-chlorophenyl]-N-[3-(3-amidinophenyl)-2-(E)-propenyl]sulfamoylacetic Acid Dihydrochloride] showed an IC50 of 520 nM. In the case of `CC(=N)N1CCC(Oc2ccc(N(C/C=C/c3cccc(C(=N)N)c3)S(=O)(=O)CC(=O)O)cc2F)CC1` [Example 11, N-[4-(1-Acetimidoylpiperidin-4-yloxy)-3-fluorophenyl]-N-[3-(3-amidinophenyl)-2-(E)-propenyl]sulfamoylacetic Acid Dihydrochloride], the IC50 was 840 nM.
